Data taken from patent US10307404B1, “Ocular formulations for drug-delivery to the posterior segment of the eye” (priority 2013, dated 2019).
Read-outs that look alike come from different tables or passages of the source.

How the values were obtained:
[1] = PK of topical ocular sodium phosphate-based Gel Drop, concentrations 1 hour after last dose; format: in vivo, Dutch-belted rabbits; conditions: Dutch-belted, rabbit
From the text: The Gel Drop of Compound-I was applied to eyes of Dutch-belted rabbits.

[2] = Corneal and choroid exposure compared between formulations (topical ocular dosing); format: in vivo, Dutch-belted rabbits
From the text: Overall, the combination of decreased corneal exposure and corresponding improved ocular tolerability, while simultaneously maintaining or promoting drug delivery to the posterior segment target tissues, along with improved physicochemical stability, will provide greater benefit to patients compared to the ophthalmic Gel Drop formulation.

[3] = Solubility; format: physicochemical
[4] = Ocular toxicology study, twice daily 0.3% ophthalmic gel drop: ocular tissue concentrations, electroretinograms; format: in vivo, Dutch-Belted rabbits; conditions: 0.3% gel drop formulations with and without benzylalkonium chloride
From the text: Retinal function was normal in all test article and vehicle treated groups during full-field electroretinograms performed in rabbits.

[5] = parameters: species or system Dutch-Belted rabbits; conditions: rabbit, in vivo
Method: The ocular solution of Compound-I comprising cyclodextrin was prepared and tested in different groups of animals.

Cl.NC(=O)c1c(OCc2c(F)cc(Br)cc2F)nsc1NC(=O)NCCCCN1CCCC1 [Compound-I, 3-[(4-bromo-2,6-difluorophenyl)methoxy]-5-[[[[4-(1-pyrrolidinyl)butyl]amino]carbonyl]amino]-4-isothiazolecarboxamide hydrochloride]
concentration at 1 h ([1]; choroid, 5 mg/ml, pH 6, 5 mg/ml pH 6 Phos 0.2% BAK 0.005% Gly 2% PS80 1% Polox 0.2% Osmo 288, 3x/day 5 days, read-out: MEAN [choroid]): 612 nM
concentration at 1 h ([1]; choroid, 6 mg/ml, pH 5.9, 6 mg/ml pH 5.9 Phos 0.05% BAK 0.005% Gly 2% PS80 1% Tylox 0.1% Polox 0.2% Osmo 270, 3x/day 4 days, read-out: MEAN [choroid]): 22.4 nM
concentration at 1 h ([1]; choroid, 6 mg/ml, pH 5.9, 6 mg/ml pH 5.9 Phos […] Osmo 80, 3x/day 4 days, read-out: MEAN [choroid]): 823 nM
concentration at 1 h ([1]; choroid, 6 mg/ml, pH 6.1, 6 mg/ml pH 6.1 Phos 0.05% BAK 0.005% Gly 2% PS80 1% Tylox 0.1% Osmo 248, 3x/day 5 days, read-out: MEAN [choroid]): 779 nM
concentration at 1 h ([1]; plasma, 1 mg/ml, pH 6, 1 mg/ml pH 6.0 Phos 0.05% BAK 0.005% Gly 2% PS80 0.01% Tylox 0.2%, 3x/day 5 days, read-out: [plasma]): 3.49 nM
concentration at 1 h ([1]; plasma, 1 mg/ml, pH 6, 1 mg/ml pH 6 Phos 0.05% BAK 0.005% Gly 2%, 3x/day 5 days, read-out: [plasma]): 4.45 nM
concentration at 1 h ([1]; plasma, 1 mg/ml, pH 6, 1 mg/ml pH 6.0 Phos 0.2% BAK 0.005% Gly 2% PS80 1% Tylox 0.2%, 3x/day 5 days, read-out: [plasma]): 2.89 nM
concentration at 1 h ([1]; plasma, 1 mg/ml, pH 6, 1 mg/ml pH 6.0 Phos 0.2% BAK 0.005% Gly 2%, 3x/day 5 days, read-out: [plasma]): 3.97 nM
concentration at 1 h ([1]; plasma, 2 mg/ml, pH 6, 2 mg/ml pH 6 BAK 0.005% Gly 2% Osmo 232, 3x/day 5 days, read-out: [plasma]): 5.41 nM
concentration at 1 h ([1]; plasma, 2 mg/ml, pH 6, 2 mg/ml pH 6.0 Phos 0.02% BAK 0.005% Gly 2% PS80 1% Tylox 0.2%, 3x/day 5 days, read-out: [plasma]): 4.46 nM
concentration at 1 h ([1]; plasma, 2 mg/ml, pH 6, 2 mg/ml pH 6 Phos 0.05% BAK 0.005% Gly 2% Osmo 244, 3x/day 5 days, read-out: [plasma]): 5.92 nM
concentration at 1 h ([1]; plasma, 2 mg/ml, pH 6, 2 mg/ml pH 6 Phos 0.05% BAK 0.005% Gly 2% PS80 1% Osmo 261, 3x/day 5 days, read-out: [plasma]): 4.15 nM
concentration at 1 h ([1]; plasma, 2 mg/ml, pH 6, 2 mg/ml pH 6.0 Phos 0.05% BAK 0.005% Gly 2% PS80 1% Tylox 0.2%, 3x/day 5 days, read-out: [plasma]): 4.36 nM
concentration at 1 h ([1]; plasma, 2 mg/ml, pH 6, 2 mg/ml pH 6.0 Phos 0.05% BAK 0.005% Gly 2%, 3x/day 5 days, read-out: [plasma]): 5.79 nM
concentration at 1 h ([1]; plasma, 2 mg/ml, pH 6, 2 mg/ml pH 6.0 Phos 0.1% BAK 0.005% Gly 2%, 3x/day 5 days, read-out: [plasma]): 5.71 nM
concentration at 1 h ([1]; plasma, 2 mg/ml, pH 6, 2 mg/ml pH 6 Phos 0.2% BAK 0.005% Gly 2% Osmo 257, 3x/day 5 days, read-out: [plasma]): 5.26 nM
concentration at 1 h ([1]; plasma, 2 mg/ml, pH 6, 2 mg/ml pH 6 Phos 0.2% BAK 0.005% Gly 2% PS80 1% Osmo 281, 3x/day 5 days, read-out: [plasma]): 4.94 nM
concentration at 1 h ([1]; plasma, 2 mg/ml, pH 6, 2 mg/ml pH 6.0 Phos 0.2% BAK 0.005% Gly 2%, 3x/day 5 days, read-out: [plasma]): 4.47 nM
concentration at 1 h ([1]; plasma, 2 mg/ml, pH 6.1, 2 mg/ml pH 6.1 Phos […] Osmo 34, 3x/day 4 days, read-out: [plasma]): 4.81 nM
concentration at 1 h ([1]; plasma, 4 mg/ml, pH 6, 4 mg/ml pH 6.0 Phos 0.2% BAK 0.005% Gly 2%, 3x/day 5 days, read-out: [plasma]): 5.84 nM
concentration at 1 h ([1]; plasma, 4 mg/ml, pH 6, 4 mg/ml pH 6.0 Phos 2% BAK 0.005% Gly 2% PS80 1% Tylox 0.2%, 3x/day 5 days, read-out: [plasma]): 8.06 nM
concentration at 1 h ([1]; plasma, 6 mg/ml, pH 5.9, 6 mg/ml pH 5.9 Phos 0.05% BAK 0.005% Gly 2% PS80 1% Tylox 0.1% Polox 0.2% Osmo 270, 3x/day 4 days, read-out: [plasma]): 15.6 nM
concentration at 1 h ([1]; plasma, 6 mg/ml, pH 5.9, 6 mg/ml pH 5.9 Phos 0.1% BAK 0.005% Gly 2% Polox 0.2% Osmo 257, 3x/day 4 days, read-out: [plasma]): 8.43 nM
concentration at 1 h ([1]; retina, 1 mg/ml, pH 6, 1 mg/ml pH 6.0 Phos 0.05% BAK 0.005% Gly 2% PS80 0.01% Tylox 0.2%, 3x/day 5 days, read-out: Mean [retina]): 46.8 nM
concentration at 1 h ([1]; retina, 1 mg/ml, pH 6, 1 mg/ml pH 6.0 Phos 0.2% BAK 0.005% Gly 2% PS80 1% Tylox 0.2%, 3x/day 5 days, read-out: Mean [retina]): 32.7 nM
concentration at 1 h ([1]; retina, 1 mg/ml, pH 6, 1 mg/ml pH 6.0 Phos 0.2% BAK 0.005% Gly 2%, 3x/day 5 days, read-out: Mean [retina]): 90.8 nM
concentration at 1 h ([1]; retina, 2 mg/ml, pH 6, 2 mg/ml pH 6.0 Phos 0.02% BAK 0.005% Gly 2% PS80 1% Tylox 0.2%, 3x/day 5 days, read-out: Mean [retina]): 92.9 nM
concentration at 1 h ([1]; retina, 2 mg/ml, pH 6, 2 mg/ml pH 6 Phos 0.05% BAK 0.005% Gly 2% Osmo 244, 3x/day 5 days, read-out: Mean [retina]): 121 nM
concentration at 1 h ([1]; retina, 2 mg/ml, pH 6, 2 mg/ml pH 6 Phos 0.05% BAK 0.005% Gly 2% PS80 1% Osmo 261, 3x/day 5 days, read-out: Mean [retina]): 126 nM
concentration at 1 h ([1]; retina, 2 mg/ml, pH 6, 2 mg/ml pH 6.0 Phos 0.05% BAK 0.005% Gly 2% PS80 1% Tylox 0.2%, 3x/day 5 days, read-out: Mean [retina]): 85.7 nM
concentration at 1 h ([1]; retina, 2 mg/ml, pH 6, 2 mg/ml pH 6.0 Phos 0.05% BAK 0.005% Gly 2%, 3x/day 5 days, read-out: Mean [retina]): 113 nM
concentration at 1 h ([1]; retina, 2 mg/ml, pH 6, 2 mg/ml pH 6.0 Phos 0.1% BAK 0.005% Gly 2%, 3x/day 5 days, read-out: Mean [retina]): 42.9 nM
concentration at 1 h ([1]; retina, 2 mg/ml, pH 6, 2 mg/ml pH 6.0 Phos 0.2% BAK 0.005% Gly 2%, 3x/day 5 days, read-out: Mean [retina]): 34.8 nM
concentration at 1 h ([1]; retina, 4 mg/ml, pH 6, 4 mg/ml pH 6.0 Phos 0.2% BAK 0.005% Gly 2%, 3x/day 5 days, read-out: Mean [retina]): 68.3 nM
concentration at 1 h ([1]; retina, 4 mg/ml, pH 6, 4 mg/ml pH 6.0 Phos 2% BAK 0.005% Gly 2% PS80 1% Tylox 0.2%, 3x/day 5 days, read-out: Mean [retina]): 97.6 nM
reduction in corneal concentrations versus equimolar Gel Drop ([2]; cyclodextrin-based solutions, 1 to 30 days dosing, Dutch-belted rabbits): ~10 ×
clinical or histopathologic findings ([2]; ophthalmic solution, repeated topical ocular dosing, rabbits and dogs): free of untoward clinical or histopathologic findings
target therapeutic exposure in the central choroid versus equimolar ophthalmic gel drop ([2]; ophthalmic solution, topical ocular dosing): equal or higher
corneal concentrations, Gel Drop compared to Tris-based suspensions ([2]; rabbit, in vivo): fifty-fold to hundred-fold higher
corneal concentrations, Gel Drop compared to cyclodextrin based solution ([2]; rabbit, in vivo): five-fold to fifteen-fold higher
reduction of exposure (cornea) ([2]; suspension-based and cyclodextrin formulations): 10-100 ×
solubility provided (clinical dose strengths) ([3]; HP-β-CD (KLEPTOSE HPB) at equal to or more than 1:6 molar ratio): 0.1-1.0%
solubility provided (clinical dose strengths) ([3]; SBE-β-CD (CAPTISOL) at equal to or more than 1:2 ratio): 0.1-1.0%
Solubility ([3]; pH 7.5 (0.05M NaH2PO4)): 1000 µg/mL
Solubility ([3]; pH 9.0 (0.05 m Na2HPO4)): 700 µg/mL
Mean ocular tissue concentration, peripheral retina [4]: 0.150 to 0.3091 µM
tolerability [5]: well-tolerated
